Results from US11702422B2, “Imidazopyridazines as modulators of IL-17” (Janssen Pharmaceutica NV, priority 2020, dated 2023).

Assays:
[1] = molecular target: IL-17A(FLAG-Tagged): IL-17RA(His-Tagged) (Homo sapiens, UniProt Q16552, K93Q); experiment: IL-17A(FLAG-Tagged): IL-17RA(His-Tagged) Binding Disruption Eu-HTRF Assay; settings: IL-17A/IL-17RA binding disruption, simple average if tested more than once
Summary of the method: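 IC50 comes from a one-site competition fit of the HTRF 665/620 nm ratio. Compound dilutions (2-fold, 22 points) were held 1 h rt with FLAG-tagged IL-17A dimer, then His-tagged IL-17RA plus Eu-cryptate anti-FLAG and D2 anti-His antibodies were added for 2 h rt.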

[2] = test system: IL-17A-induced G-CSF production in human normal keratinocyte (NHK); experiment: NHK Assay: IL-17A-induced G-CSF production in human normal keratinocytes; assay type: cell-based; settings: Homo sapiens, Keratinocyte, 24 h, adult normal human keratinocytes, IL-17A 5 ng/mL, simple average if tested more than once
Summary of the method: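 G-CSF released by primary adult human keratinocytes after 24 h at 37° C was quantified by HTRF via standard curve to give IC50. Stimulus was 5 ng/mL IL-17A pre-mixed 1 h at rt with compound dilutions, in 5% FBS and 0.2% DMSO. Cell viability was assessed in parallel with CellTiter-Glo.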

Sequence of UniProt Q16552 (Q16552 with tags, fused parts or gaps K93Q): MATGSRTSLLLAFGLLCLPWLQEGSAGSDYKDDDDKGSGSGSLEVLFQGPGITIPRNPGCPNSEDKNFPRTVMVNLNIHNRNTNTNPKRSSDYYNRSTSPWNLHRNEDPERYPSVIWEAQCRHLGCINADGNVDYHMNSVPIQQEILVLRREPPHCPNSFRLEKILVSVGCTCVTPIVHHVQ

SMILES	IC50 [1] [nM]	IC50 [2] [nM]
Cc1nonc1C(=O)N[C@H](c1cn2ncc([C@H](NC(=O)CC3CC(F)(F)C3)C3CC3)cc2n1)C1CCC(F)(F)CC1 [Example 142, N—((S)-(7-((R)-Cyclopropyl(2-(3,3-difluorocyclobutyl)acetamido)methyl)imidazo[1,2-b]pyridazin-2-yl)(4,4-difluorocyclohexyl)methyl)-4-methyl-1,2,5-oxadiazole-3-carboxamide]	34	140
N#CC12CC(Cn3nncc3C(=O)N[C@H](c3cn4ncc([C@H](NC(=O)CCC(F)(F)F)C5CC5)cc4n3)C3CCC(F)(F)CC3)(C1)C2 [Example 145, 1-((3-Cyanobicyclo[1.1.1]pentan-1-yl)methyl)-N—((S)-(7-((R)-cyclopropyl(4,4,4-trifluorobutanamido)methyl)imidazo[1,2-b]pyridazin-2-yl)(4,4-difluorocyclohexyl)methyl)-1H-1,2,3-triazole-5-carboxamide]	650	300
N#CC12CC(Cn3ncc(C(=O)N[C@H](c4cn5ncc([C@H](NC(=O)CCC(F)(F)F)C6CC6)cc5n4)C4CCC(F)(F)CC4)n3)(C1)C2 [Example 146, 2-((3-Cyanobicyclo[1.1.1]pentan-1-yl)methyl)-N—((S)-(7-((R)-cyclopropyl(4,4,4-trifluorobutanamido)methyl)imidazo[1,2-b]pyridazin-2-yl)(4,4-difluorocyclohexyl)methyl)-2H-1,2,3-triazole-4-carboxamide]	680	710
N#CC12CC(Cn3cc(C(=O)N[C@H](c4cn5ncc([C@H](NC(=O)CCC(F)(F)F)C6CC6)cc5n4)C4CCC(F)(F)CC4)nn3)(C1)C2 [Example 147, 1-((3-Cyanobicyclo[1.1.1]pentan-1-yl)methyl)-N—((S)-(7-((R)-cyclopropyl(4,4,4-trifluorobutanamido)methyl)imidazo[1,2-b]pyridazin-2-yl)(4,4-difluorocyclohexyl)methyl)-1H-1,2,3-triazole-4-carboxamide]	1700	> 20000
CC1(C(=O)N[C@H](c2cn3ncc([C@H](NC(=O)CCC(F)(F)F)C4CC4)cc3n2)C2CCC(F)(F)CC2)CC1(F)F (stereo partly drawn) [Example 148, N—((S)-(7-((R)-Cyclopropyl(4,4,4-trifluorobutanamido)methyl)imidazo[1,2-b]pyridazin-2-yl)(4,4-difluorocyclohexyl)methyl)-2,2-difluoro-1-methylcyclopropane-1-carboxamide]	940	1700
O=C(CCC(F)(F)F)N[C@@H](c1cnn2cc([C@@H](NC(=O)c3cncc(CCC(F)F)c3)C3CCC(F)(F)CC3)nc2c1)C1CC1 [Example 151, N—((S)-(7-((R)-Cyclopropyl(4,4,4-trifluorobutanamido)methyl)imidazo[1,2-b]pyridazin-2-yl)(4,4-difluorocyclohexyl)methyl)-5-(3,3-difluoropropyl)nicotinamide]	67	200
O=C(CCC(F)(F)F)N[C@@H](c1cnn2cc([C@@H](NC(=O)c3cncc(CC(F)F)c3)C3CCC(F)(F)CC3)nc2c1)C1CC1 [Example 152, N—((S)-(7-((R)-Cyclopropyl(4,4,4-trifluorobutanamido)methyl)imidazo[1,2-b]pyridazin-2-yl)(4,4-difluorocyclohexyl)methyl)-5-(2,2-difluoroethyl)nicotinamide]	32	180
Cc1nocc1C(=O)N[C@H](c1cn2ncc(C(C)NC(=O)CCC(F)(F)F)cc2n1)C1CCC(F)(F)CC1 (stereo partly drawn) [Example 153, N-((1S)-(4,4-Difluorocyclohexyl)(7-(1-(4,4,4-trifluorobutanamido)ethyl)imidazo[1,2-b]pyridazin-2-yl)methyl)-3-methylisoxazole-4-carboxamide]	420	480
CCc1nonc1C(=O)N[C@H](c1cn2ncc([C@H](NC(=O)CCC(F)(F)F)C3CC3)cc2n1)C1CCC(F)(F)CC1 [Example 156, N—((S)-(7-((R)-Cyclopropyl(4,4,4-trifluorobutanamido)methyl)imidazo[1,2-b]pyridazin-2-yl)(4,4-difluorocyclohexyl)methyl)-4-ethyl-1,2,5-oxadiazole-3-carboxamide]	13	60
Cc1nonc1C(=O)N[C@H](c1cn2ncc([C@H](NC(=O)CCC(F)(F)F)C3CC3)cc2n1)C1CCC(F)(F)CC1 [Example 157, N—((S)-(7-((R)-Cyclopropyl(4,4,4-trifluorobutanamido)methyl)imidazo[1,2-b]pyridazin-2-yl)(4,4-difluorocyclohexyl)methyl)-4-methyl-1,2,5-oxadiazole-3-carboxamide]	36	150
Cc1conc1C(=O)N[C@H](c1cn2ncc([C@H](NC(=O)CCC(F)(F)F)C3CC3)cc2n1)C1CCC(F)(F)CC1 [Example 158, N—((S)-(7-((R)-Cyclopropyl(4,4,4-trifluorobutanamido)methyl)imidazo[1,2-b]pyridazin-2-yl)(4,4-difluorocyclohexyl)methyl)-4-methylisoxazole-3-carboxamide]	48	210
Cc1oncc1C(=O)N[C@H](c1cn2ncc([C@H](NC(=O)CCC(F)(F)F)C3CC3)cc2n1)C1CCC(F)(F)CC1 [Example 159, N—((S)-(7-((R)-Cyclopropyl(4,4,4-trifluorobutanamido)methyl)imidazo[1,2-b]pyridazin-2-yl)(4,4-difluorocyclohexyl)methyl)-5-methylisoxazole-4-carboxamide]	100	260
Cc1cnoc1C(=O)N[C@H](c1cn2ncc([C@H](NC(=O)CCC(F)(F)F)C3CC3)cc2n1)C1CCC(F)(F)CC1 [Example 160, N—((S)-(7-((R)-Cyclopropyl(4,4,4-trifluorobutanamido)methyl)imidazo[1,2-b]pyridazin-2-yl)(4,4-difluorocyclohexyl)methyl)-4-methylisoxazole-5-carboxamide]	73	270
Cc1nscc1C(=O)N[C@H](c1cn2ncc([C@H](NC(=O)CCC(F)(F)F)C3CC3)cc2n1)C1CCC(F)(F)CC1 [Example 161, N—((S)-(7-((R)-Cyclopropyl(4,4,4-trifluorobutanamido)methyl)imidazo[1,2-b]pyridazin-2-yl)(4,4-difluorocyclohexyl)methyl)-3-methylisothiazole-4-carboxamide]	61	310
CC(C)c1cc(C(=O)N[C@H](c2cn3ncc([C@H](NC(=O)CCC(F)(F)F)C4CC4)cc3n2)C2CCC(F)(F)CC2)ncn1 [Example 162, N—((S)-(7-((R)-Cyclopropyl(4,4,4-trifluorobutanamido)methyl)imidazo[1,2-b]pyridazin-2-yl)(4,4-difluorocyclohexyl)methyl)-6-isopropylpyrimidine-4-carboxamide]	150	940
O=C(CCC(F)(F)F)N[C@@H](c1cnn2cc([C@@H](NC(=O)c3cccc(N4CCCC4=O)c3)C3CCC(F)(F)CC3)nc2c1)C1CC1 [Example 163, N—((S)-(7-((R)-Cyclopropyl(4,4,4-trifluorobutanamido)methyl)imidazo[1,2-b]pyridazin-2-yl)(4,4-difluorocyclohexyl)methyl)-3-(2-oxopyrrolidin-1-yl)benzamide]	120	100
O=C(CCC(F)(F)F)N[C@@H](c1cnn2cc([C@@H](NC(=O)c3cccc(C4CC4(F)F)c3)C3CCC(F)(F)CC3)nc2c1)C1CC1 (stereo partly drawn) [Example 164, N—((S)-(7-((R)-Cyclopropyl(4,4,4-trifluorobutanamido)methyl)imidazo[1,2-b]pyridazin-2-yl)(4,4-difluorocyclohexyl)methyl)-3-(2,2-difluorocyclopropyl)benzamide]	55	130
O=C(CCC(F)(F)F)N[C@@H](c1cnn2cc([C@@H](NC(=O)c3cc(F)cc(OC(F)F)c3)C3CCC(F)(F)CC3)nc2c1)C1CC1 [Example 165, N—((S)-(7-((R)-Cyclopropyl(4,4,4-trifluorobutanamido)methyl)imidazo[1,2-b]pyridazin-2-yl)(4,4-difluorocyclohexyl)methyl)-3-(difluoromethoxy)-5-fluorobenzamide]	52	130
O=C(CCC(F)(F)F)N[C@@H](c1cnn2cc([C@@H](NC(=O)c3cccc(C4CC4)c3)C3CCC(F)(F)CC3)nc2c1)C1CC1 [Example 166, 3-Cyclopropyl-N—((S)-(7-((R)-cyclopropyl(4,4,4-trifluorobutanamido)methyl)imidazo[1,2-b]pyridazin-2-yl)(4,4-difluorocyclohexyl)methyl)benzamide]	57	130
O=C(CCC(F)(F)F)N[C@@H](c1cnn2cc([C@@H](NC(=O)c3cccc(OC(F)F)c3)C3CCC(F)(F)CC3)nc2c1)C1CC1 [Example 167, N—((S)-(7-((R)-Cyclopropyl(4,4,4-trifluorobutanamido)methyl)imidazo[1,2-b]pyridazin-2-yl)(4,4-difluorocyclohexyl)methyl)-3-(difluoromethoxy)benzamide]	37	160
O=C(CCC(F)(F)F)N[C@@H](c1cnn2cc([C@@H](NC(=O)c3cccc(OCC(F)F)c3)C3CCC(F)(F)CC3)nc2c1)C1CC1 [Example 168, N—((S)-(7-((R)-Cyclopropyl(4,4,4-trifluorobutanamido)methyl)imidazo[1,2-b]pyridazin-2-yl)(4,4-difluorocyclohexyl)methyl)-3-(2,2-difluoroethoxy)benzamide]	38	190
